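Briefly, cells in 96-well plates were exposed to five compound concentrations for 48 h, and endpoints were estimated by linear interpolation. TGI marks complete inhibition of growth.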
Columns and labels:
Assay in all cases: NCI-60 cell line screen, 48 h
[1] = tested on: HOP-92 NSCLC
[2] = tested on: HL-60(TB) leukemia
[3] = tested on: ACHN renal
[4] = tested on: SK-MEL-28 melanoma
[5] = tested on: SN12C renal
[6] = tested on: A498 renal
[7] = tested on: NCI/ADR-RES ovarian
[8] = tested on: OVCAR-4 ovarian
[9] = tested on: OVCAR-3 ovarian
[10] = tested on: SK-MEL-5 melanoma
[11] = tested on: OVCAR-5 ovarian
[12] = tested on: NCI-H226 lung
[13] = tested on: RXF 393 renal
[14] = tested on: HOP-62 NSCLC
[15] = tested on: CCRF-CEM leukemia
[16] = tested on: T-47D breast
[17] = tested on: SF-539 CNS
[18] = tested on: KM12 colon
[19] = tested on: MDA-MB-435
[20] = tested on: LOX IMVI melanoma
[21] = tested on: SF-268 CNS
[22] = tested on: PC-3 prostate
[23] = tested on: EKVX NSCLC
[24] = tested on: U251 CNS
[25] = tested on: RPMI-8226 leukemia
[26] = tested on: M14 melanoma
[27] = tested on: UACC-257 melanoma
[28] = tested on: HCC-2998 colon
[29] = tested on: A549 NSCLC
[30] = tested on: UO-31 renal
[31] = tested on: TK-10 renal
[32] = tested on: HT29 colon
[33] = tested on: HS 578T breast
[34] = tested on: SK-OV-3 ovarian
[35] = tested on: OVCAR-8 ovarian
[36] = tested on: 786-0 renal
[37] = tested on: NCI-H23 lung
[38] = tested on: COLO 205 colon
[39] = tested on: HCT-15 colon
[40] = tested on: NCI-H460 lung
[41] = tested on: K-562 leukemia
[42] = tested on: SF-295 CNS
[43] = tested on: DU-145 prostate
[44] = tested on: HCT-116 colon
[45] = tested on: MDA-N
[46] = tested on: MDA-MB-231 breast
[47] = tested on: IGROV1 ovarian
[48] = tested on: SNB-75 CNS
[49] = tested on: SR leukemia
[50] = tested on: NCI-H522 lung
[51] = tested on: MCF7 breast
[52] = tested on: SNB-19 CNS
[53] = tested on: MALME-3M melanoma
[54] = tested on: MOLT-4 leukemia
[55] = tested on: SW-620 colon
[56] = tested on: SK-MEL-2 melanoma
[57] = tested on: CAKI-1 renal

`O=C(O)CC1C(=O)OC2C3COC(=O)c4cc(O)c(O)c(O)c4-c4c(cc(O)c(O)c4O)C(=O)OC2C(OC(=O)c2cc(O)c(O)c4c2C1C(O)C(=O)O4)C(OC(=O)c1cc(O)c(O)c(O)c1)O3` (configuration not stated) gave a TGI [1] of 52.6 µM, a TGI [2] of 30.4 µM and a TGI [3] greater than 100 µM. For the same compound, the TGI [4] was greater than 100 µM, the TGI [5] was 36.3 µM and the TGI [6] was greater than 100 µM. It also gave a TGI [7] of 46.9 µM, a TGI [8] greater than 100 µM and a TGI [9] of 72.8 µM. The TGI [10] was greater than 100 µM, the TGI [11] was greater than 100 µM and the TGI [12] was greater than 100 µM. For the same compound, the TGI [13] was greater than 100 µM, the TGI [14] was greater than 100 µM and the TGI [15] was 37 µM. The TGI [16] was greater than 100 µM, the TGI [17] was greater than 100 µM and the TGI [18] was 42.6 µM. It also gave a TGI [19] of 83 µM, a TGI [20] of 31.5 µM and a TGI [21] greater than 100 µM. The TGI [22] was greater than 100 µM, the TGI [23] was 66.8 µM and the TGI [24] was 73 µM. The TGI [25] was greater than 100 µM, the TGI [26] was greater than 100 µM and the TGI [27] was greater than 100 µM. It also gave a TGI [28] greater than 100 µM, a TGI [29] greater than 100 µM and a TGI [30] greater than 100 µM. The TGI [31] was greater than 100 µM, the TGI [32] was 26.4 µM and the TGI [33] was greater than 100 µM. For the same compound, the TGI [34] was greater than 100 µM, the TGI [35] was 67.2 µM and the TGI [36] was 56.5 µM. The TGI [37] was greater than 100 µM, the TGI [38] was greater than 100 µM and the TGI [39] was greater than 100 µM. The TGI [40] was 31.4 µM, the TGI [41] was greater than 100 µM and the TGI [42] was greater than 100 µM. It also gave a TGI [43] greater than 100 µM, a TGI [44] of 27.8 µM and a TGI [45] of 50.1 µM. For the same compound, the TGI [46] was 78.6 µM, the TGI [47] was greater than 100 µM and the TGI [48] was 41.5 µM. It also gave a TGI [49] of 75.8 µM, a TGI [50] of 46.6 µM and a TGI [51] of 40.6 µM. The TGI [52] was greater than 100 µM, the TGI [53] was greater than 100 µM and the TGI [54] was 95 µM. It also gave a TGI [55] greater than 100 µM, a TGI [56] greater than 100 µM and a TGI [57] of 42.9 µM.

From PubChem BioAssay (NCI)
